The values that follow come from patent US20250250292A1, “DELIVERY SYSTEM TO TARGET GRAM-NEGATIVE BACTERIA” (priority 2022, published 2025).

Read-outs that look alike come from different tables or passages of the source.

Series [1] has as its system Escherichia coli (BL21(DE3)). The experiment in a line: Resazurin blue (alamarBlue) bacterial cell viability assay, gram-negative model. It counts as cell-based. The conditions noted are these: E Coli BL21 (DE3). How it is done: (§1) To compare the efficacy of pleuromutilin and the pleuromulin-TPP^+ ester pro-drug (AP-8-159B) gram-negative and gram-positive pathogen model system were used. Thus, Escherichia coli (BL21(DE3) from New England Biolabs) was used as a model strain for gram-negative bacteria and clinical isolates of Staphylococcus aureus were used as the model system for gram-positive bacteria (NR-49120, NR-46413 obtained from BEI Resources). All strains were cultured at 37° C. overnight in Luria Bertani (LB) (BD 244610). For testing the drug sensitivity, bacteria were grown in RPMI medium containing 10% fetal bovine serum or human serum.
A resazurin blue assay (alamarBlue®) (Toté et al., 2009; Costa et al., 2021; Wannigama et al., 2019; Travnickova et al., 2019) was used to evaluate bacterial cell viability. Resazurin (7-hydroxy-10-oxidophenoxazin-10-ium-3-one, sodium) is a blue fluorogenic dye used as a redox indicator in cell viability and proliferation assays for bacteria, yeast, or mammalian cells. The resazurin assay protocol is based on the reduction of oxidized non-fluorescent blue resazurin to a red fluorescent dye (resorufin), where NADPH dehydrogenase, without being bound by theory, is probably responsible for the transference of electrons from NADPH+H^+ to resazurin (Costa et al., 2021). The amount of resorufin produced is directly proportional to the number of living cells. This simple fluorometric-based assay rapidly quantifies metabolically active bacterial cells. Two controls were added to the plate to confirm the correct response from the resazurin. The positive control used evaluated media alone without bacterial culture to confirm there was no change from blue to red. The negative control evaluated the bacteria culture alone without added compound to provide a 100% growth control (red). Thus, resazurin sodium salt (Sigma R7017) was added to pleuromutilin or pleuromutilin-TPP+ prodrug treated bacterial samples at a final concentration of 0.02% and incubated for 8 hours at 37° C. Changes in fluorescence were measured on the Biotek Synergy 2 plate reader after an 8-hour incubation at 37° C. using an excitation filter range of 530-570 nm and an emission filter range of 590-620 nm. An increase in fluorescence intensity corresponded to bacterial growth and was quantified by comparison with untreated bacterial control samples. The ratio of (TThreshold (untreated)/TThreshold (prodrug-treated)) (where T=time) was used to quantify the change in bacterial growth. To minimize inter-experimental variations, TThreshold values were corrected by subtracting untreated control cultures to reach minimum detectable fluorescence. At the end of the experiment, wells were visualized for changes in color from blue (inviable bacteria) to red (viable bacteria) and a picture was taken.
(Resazurin is reduced to fluorescent resorufin, in cell work by metabolically active cells.)

The test system of series [2] is clinical isolates of Staphylococcus aureus (NR-49120, NR-46413). Briefly: Resazurin blue (alamarBlue) bacterial cell viability assay, gram-positive model. The series is classed as cell-based. The conditions noted are these: clinical strains of Staphylococcus aureus. How it is done:
as §1
A resazurin blue assay (alamarBlue®) (Toté et al., 2009; Costa et al., 2021; Wannigama et al., 2019; Travnickova et al., 2019) was used to evaluate bacterial cell viability. Resazurin (7-hydroxy-10-oxidophenoxazin-10-ium-3-one, sodium) is a blue fluorogenic dye used as a redox indicator in cell viability and proliferation assays for bacteria, yeast, or mammalian cells. […] This simple fluorometric-based assay rapidly quantifies metabolically active bacterial cells. […] The positive control used evaluated media alone without bacterial culture to confirm there was no change from blue to red. The negative control evaluated the bacteria culture alone without added compound to provide a 100% growth control (red). […] Changes in fluorescence were measured on the Biotek Synergy 2 plate reader after an 8-hour incubation at 37° C. using an excitation filter range of 530-570 nm and an emission filter range of 590-620 nm. An increase in fluorescence intensity corresponded to bacterial growth and was quantified by comparison with untreated bacterial control samples. The ratio of (TThreshold (untreated)/TThreshold (prodrug-treated)) (where T=time) was used to quantify the change in bacterial growth. To minimize inter-experimental variations, TThreshold values were corrected by subtracting untreated control cultures to reach minimum detectable fluorescence. […]

In a further series the test system is MRC5 fibroblast cells. Briefly: Cel Titer Glo cytotoxicity in MRC5 cells. It counts as cell-based. How it is done: In order to facilitate development of the TPP containing antibiotics, a series of TPP linkers were prepared and tested for their toxicity in MRC5 cells. This library of linkers are shown below: The toxicity of these linkers in MRC5 cells after a 72 hour incubation.

Series [3] has as its system Acinetobacter baumannii. Briefly: Antibacterial in vitro activity (MIC). The series is classed as cell-based. How it is done: (§2) These compounds were tested in an E. coli and Klebsiella strain to determine the change in OD600 as a function of concentration (FIG. 5, E. coli; FIG. 6, Klebsiella). The antibacterial activity of the compounds was further analyzed and activity was determine a variety of different bacterial strains.

The test system of another series is Citrobacter freundii. The experiment in a line: Antibacterial in vitro activity (MIC). It counts as cell-based. How it is done:
as §2

The test system of another series is Enterobacter cloacae. Briefly: Antibacterial in vitro activity (MIC). It counts as cell-based. How it is done: as §2
For a further series, the system named is Enterococcus faecium. Briefly: Antibacterial in vitro activity (MIC). As to conditions: isolate D0459, Clinical isolate. The series is classed as cell-based. How it is done: as §2
The next series relates to Escherichia coli. Briefly: Antibacterial in vitro activity (MIC). It counts as cell-based. How it is done: as §2
Another series has as its system Haemophilus influenzae. The experiment in a line: Antibacterial in vitro activity (MIC). It counts as cell-based. How it is done:
as §2

The test system of another series is Klebsiella pneumoniae. Briefly: Antibacterial in vitro activity (MIC). The series is classed as cell-based. How it is done:
as §2

The subject of a further series is Proteus mirabilis. Briefly: Antibacterial in vitro activity (MIC). It counts as cell-based. How it is done:
as §2

The subject of series [4] is Pseudomonas aeruginosa. The experiment in a line: Antibacterial in vitro activity (MIC). It counts as cell-based. How it is done: as §2
A further series deals with Salmonella typhimurium. The experiment in a line: Antibacterial in vitro activity (MIC). The series is classed as cell-based. The conditions noted are these: Salmonella enterica, ATCC 13311 / TYPHIMURIUM; isolate D0109, ATCC13311. How it is done: as §2
In another series the test system is Staphylococcus aureus. The experiment in a line: Antibacterial in vitro activity (MIC). It counts as cell-based. How it is done:
as §2

The test system of a further series is Streptococcus agalactiae. The experiment in a line: Antibacterial in vitro activity (MIC). The series is classed as cell-based. As to conditions: isolate B0790, Clinical isolate. How it is done:
as §2

The subject of another series is Streptococcus pneumoniae. Briefly: Antibacterial in vitro activity (MIC). It counts as cell-based. How it is done:
as §2

A further series concerns Streptococcus pyogenes. Briefly: Antibacterial in vitro activity (MIC). As to conditions: isolate B0780, Clinical isolate. It counts as cell-based. How it is done:
as §2

Series [5] concerns Pseudomonas aeruginosa. The conditions noted are these: McCarthy, 2021; cited from earlier work.
In series [6] the test system is Acinetobacter baumannii. The conditions noted are these: McCarthy, 2021; cited from earlier work.
For the next series, the system named is E. faecalis. The conditions noted are these: McCarthy, 2021; cited from earlier work.

For the compound `C=C[C@]1(C)C[C@@H](OC(=O)COC(=O)c2ccc(C[P+](c3ccccc3)(c3ccccc3)c3ccccc3)cc2)[C@]2(C)CC[C@@H](C)[C@@]3(CCC(=O)[C@@H]23)[C@@H](C)[C@@H]1O` [AP-8-159B], in [1], the cytotoxicity potency turned out to be 1.65 µg/mL. Also, in series [2], the “cytotoxic effect” value is given as “potent cytotoxic agents”. The same compound had a half-maximal inhibitory concentration (IC50) with MRC5 fibroblast cells (Homo sapiens, Table 2, cytotoxicity in MRC5 fibroblast cells) of 4.67 µM. Besides, in the series on MRC5 fibroblast cells (normal MRC5 fibroblast cell lines), the “cytotoxicity” value was “weak cytoxcity”. Besides, the MIC was 64 µg/mL against Acinetobacter baumannii [3] (ATCC15473, isolate B0473, ATCC 15473); 128 µg/mL in the series on Acinetobacter baumannii [3] (isolate B1062, Clinical isolate); 64 µg/mL with Citrobacter freundii (isolate B0271, Clinical isolate); 64 µg/mL with Citrobacter freundii (isolate B0286, AKH Vienna); over 128 µg/mL with Enterobacter cloacae (isolate D1089, Clinical isolate); over 128 µg/mL against Enterobacter cloacae (isolate D1090, Clinical isolate). Moreover, the MIC in the series with Enterococcus faecium was determined as 0.5 µg/mL; with Escherichia coli (ATCC25922, isolate B0001, ATCC 25922, read-out: MIC), 8 µg/mL; with Escherichia coli (isolate B0158, AcrAB-TolC efflux pump WT, read-out: MIC), 32 µg/mL; against Escherichia coli (isolate B0159, Efflux pump deficient (ΔtolC)) it was 0.5 µg/mL; in the series with Escherichia coli (isolate B0429, Efflux pump deficient (ΔacrAB)), 1 µg/mL; in the series with Escherichia coli (isolate B1098, Clinical isolate, read-out: MIC) it was 16 µg/mL. For the same compound, the MIC in the series on Escherichia coli (isolate D0120, Clinical isolate, read-out: MIC) is 16 µg/mL; against Haemophilus influenzae (ATCC49247, isolate B0035, ATCC 49247), 1 µg/mL; with Haemophilus influenzae (isolate B0126, Clinical isolate), 0.25 µg/mL; in the series with Klebsiella pneumoniae (ATCC11228, isolate B0032, ATCC 11228), over 128 µg/mL; with Klebsiella pneumoniae (ATCC29519, isolate D0033, ATCC 29519), 128 µg/mL; in the series on Klebsiella pneumoniae (ATCC43816, isolate B0305, ATCC 43816), 128 µg/mL. Moreover, the MIC in the series on Proteus mirabilis (Proteus mirabilis, isolate D1301, Clinical isolate, read-out: MIC) worked out at 32 µg/mL; with Proteus mirabilis (isolate D1300, Clinical isolate), 32 µg/mL; against Pseudomonas aeruginosa [4] (ATCC27853, isolate B0015, ATCC 27853) it was 8 µg/mL; in the series on Pseudomonas aeruginosa [4] (ATCC29511, isolate B0016, ATCC 29511), 16 µg/mL; against Pseudomonas aeruginosa [4] (isolate B0367, Clinical isolate), 4 µg/mL; with Salmonella typhimurium, 16 µg/mL. The MIC was at most 0.12 µg/mL against Staphylococcus aureus (ATCC49951, isolate B0009, ATCC 49951); 0.5 µg/mL in the series on Staphylococcus aureus (isolate B0029, Clinical isolate); 0.5 µg/mL against Staphylococcus aureus (isolate B1325, Clinical isolates); 0.06 µg/mL against Streptococcus agalactiae; 0.5 µg/mL against Streptococcus pneumoniae (isolate B0078, Clinical isolate); at most 0.12 µg/mL with Streptococcus pneumoniae (isolate B0415, Clinical isolate). In addition, the MIC in the series on Streptococcus pyogenes worked out at 0.12 µg/mL.

Take `C=C[C@]1(C)C[C@@H](OC(=O)CS[C@@H]2CC[C@@H](N)C[C@H]2O)[C@]2(C)[C@H](C)CC[C@]3(CCC(=O)[C@H]32)[C@@H](C)[C@@H]1O` [Lefamulin]: the “antibacterial activity” value in the series on Pseudomonas aeruginosa [5], in the series on Acinetobacter baumannii [6] and in the series with E. faecalis was “lacks activity” each time.

The term IC50 denotes the midpoint of a concentration-inhibition curve. Higher therefore signals lower potency.
